How the values were obtained:
LMP7 = biological target: T1, LMP7 (Homo sapiens, UniProt P28062); assay: Cytological inhibitory activity on LMP7 in MOLT-4 cells; format: cell-based; details: incubation for 2 hours with compound, read-out: Cytological activity data LMP7 Activity (MOLT-4Cell)
T1 construct: using MOLT-4 cell lysate as the enzyme source of LMP7; endogenous in cells; host or cells: MOLT-4 (human acute lymphoblastic leukemia cells)
Method in brief: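 MOLT-4 cells pre-incubated 2 h with compound (8 concentrations, 5-fold dilution series from 2 mM DMSO stock, 5% FBS), washed and lysed. Lysate (20 ng/μl, 2× stock) reacted with Ac-ANW-AMC (100 μM, 2× stock) in 20 mM Tris pH 8.0, 0.5 mM EDTA, 1 h, 23 °C. Fluorescence at 345/445 nm; IC50 fitted.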

[1] = Animal pharmacokinetic study in rats, single gavage; format: in vivo; details: rat, po; male rats, single gavage 5 mg/kg, plasma
Protocol: Three healthy adult male rats from Beijing Vital River Experimental animal Technology Co. Ltd were used for animal pharmacokinetic experiments. The compounds were suspended in 20% sulfobutyl ether-β-cyclodextrin (W/W/V) at a concentration of 1 mg/mL at a dosing volume of 5 mL/kg by single gavage at a dose of 5 mg/kg. Animals were fasted overnight before the experiment, from 10 hours before the administration to 4 hours after the administration. Blood was collected at 0.25, 0.5, 1, 2, 4, 6, 8, and 24 hours after the administration. The animals were anesthetized with isoflurane. About 0.4 mL of whole blood was collected from the orbital venous plexus using a glass blood collection tube and placed in a heparin anticoagulant tube. The sample was centrifuged at 4200 rpm for 5 min at 4° C. The plasma was transferred to a centrifuge tube and stored at −80° C. for later analysis. The plasma sample analysis used the acetonitrile protein precipitation method to extract the compound to be tested and internal standard (Warfarin or Propranolol) from rat plasma, and the extraction solution was analyzed by LC/MS/MS. The plasma concentration-time data of individual animals measured were analyzed using anon-compartmental model using the WinNonlin (version 5.2.1; Pharsight company) software, and the following pharmacokinetic parameters were obtained: maximum (peak) plasma drug concentration Cmax; Time to max Tmax; the area under the curve AUC0-inf of blood drug concentration-time from half-life T½ and extrapolation to infinite time.

SMILES | IC50 (LMP7) | AUC(0-inf) [1] | Cmax [1] | Tmax [1] | half-life [1]
O=C(Nc1cnccn1)C(=O)N[C@@H](Cc1coc2ccccc12)B(O)O [Ex. 9, (R)-(2-(benzofuran-3-yl)-1-(2-oxo-2-(pyrazin-2-ylamino)acetamido)ethyl) boronic acid] | 4.82 nM | 38600 ng·h/mL | 3880 ng/mL | 2.67 h | 5.58 h
CC1CC(C)(C)OB([C@H](Cc2coc3ccccc23)NC(=O)C(=O)Nc2cnccn2)O1 (stereo partly drawn) [Ex. 67] | 0.79 nM |  |  |  | 
O=C1COB([C@H](Cc2coc3ccccc23)NC(=O)C(=O)Nc2cnccn2)O1 [Ex. 73] | 1.15 nM |  |  |  | 

Now from value to compound:

IC50 (LMP7) | AUC(0-inf) [1] | Cmax [1] | Tmax [1] | half-life [1] | SMILES
3.77 nM | 26500 ng·h/mL | 3930 ng/mL | 0.58 h | 14.7 h | O=C(Nc1ccccn1)C(=O)N[C@@H](Cc1coc2ccccc12)B(O)O [Ex. 12]
1.58 nM | 24200 ng·h/mL | 1910 ng/mL | 3.33 h | 5.17 h | O=C(Nc1nc2ccccc2s1)C(=O)N[C@@H](Cc1coc2ccccc12)B(O)O [Ex. 27, (R)-(2-(benzofuran-3-yl)-1-(2-oxo-2-((benzo[d]thiazol-2-yl)amino)acetamido)ethyl)boronic acid]
1.72 nM | 22200 ng·h/mL | 1090 ng/mL | 0.67 h | 25.3 h | Cc1cnc(NC(=O)C(=O)N[C@@H](Cc2coc3ccccc23)B(O)O)s1 [Ex. 32, (R)-(2-(benzofuran-3-yl)-1-(2-oxo-2-((5-methylthiazol-2-yl)amino)acetamido)ethyl)boronic acid]
1.9 nM | 25400 ng·h/mL | 1430 ng/mL | 0.92 h | 16.4 h | O=C(Nc1cc(Cl)ccn1)C(=O)N[C@@H](Cc1coc2ccccc12)B(O)O [Ex. 49, (R)-(2-(benzofuran-3-yl)-1-(2-oxo-2-((4-chloropyridin-2-yl)amino)acetamido)ethyl)boronic acid]

From patent publication US20240425529A1, “BORIC ACID DERIVATIVE” (SHOUYAO HOLDINGS (BEIJING) CO., LTD., priority 2021, published 2024)
